Reference: PMC9578396, “Intrinsic Antibacterial Activity of Xeruborbactam In Vitro: Assessing Spectrum and Mode of Action” (Antimicrobial Agents and Chemotherapy, 2022)
Values after ≈ are worked out from the molar mass of the structure shown. Values joined by “and” are separate entries in the source; they are usually repeats but may differ in a detail not shown here. Identical values can stand only once. Like-named read-outs stand apart in the source and are kept apart here.

How the values were obtained:
PBP1a = PBP1a (Klebsiella pneumoniae, UniProt A0A0H3GZF1); design: method as in PMID 29712652; conditions: read-out: IC50, PBP1a; value in parentheses; K. pneumoniae ATCC 43816; cited from earlier work
Sequence of PBP1a (A0A0H3GZF1 entry or part of it): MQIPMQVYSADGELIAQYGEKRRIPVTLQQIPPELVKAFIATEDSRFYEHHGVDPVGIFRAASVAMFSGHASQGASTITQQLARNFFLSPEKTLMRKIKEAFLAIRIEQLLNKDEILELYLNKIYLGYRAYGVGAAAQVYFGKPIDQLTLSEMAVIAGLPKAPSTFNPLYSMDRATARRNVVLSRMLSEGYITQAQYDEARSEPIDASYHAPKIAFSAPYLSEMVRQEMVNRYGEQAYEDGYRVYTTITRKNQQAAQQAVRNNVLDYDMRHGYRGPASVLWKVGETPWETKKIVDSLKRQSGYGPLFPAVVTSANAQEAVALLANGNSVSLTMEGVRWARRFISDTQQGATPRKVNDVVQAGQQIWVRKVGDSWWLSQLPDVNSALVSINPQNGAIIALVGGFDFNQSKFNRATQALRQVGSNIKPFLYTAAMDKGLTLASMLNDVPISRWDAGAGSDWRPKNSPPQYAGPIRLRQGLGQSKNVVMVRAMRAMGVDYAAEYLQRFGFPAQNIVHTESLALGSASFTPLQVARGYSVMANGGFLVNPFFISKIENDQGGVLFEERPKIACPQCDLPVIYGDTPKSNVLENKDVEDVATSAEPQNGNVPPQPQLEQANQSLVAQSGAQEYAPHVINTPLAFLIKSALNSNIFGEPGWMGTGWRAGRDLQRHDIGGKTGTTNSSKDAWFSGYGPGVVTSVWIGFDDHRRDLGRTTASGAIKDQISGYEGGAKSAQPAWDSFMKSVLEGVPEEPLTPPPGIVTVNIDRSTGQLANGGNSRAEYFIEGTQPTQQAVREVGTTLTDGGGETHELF

PBP1b = target: T1, PBP1b (Escherichia coli, UniProt P02919); design: method as in PMID 18250190; conditions: read-out: IC50, PBP1b; value in parentheses; E. coli MC1400; cited from earlier work
T1 construct: Five microliters of total bacterial membrane preparation was mixed with 5 μL of a test compound; endogenous in cells; host or cells: Escherichia coli ECM5497 (MG1655), total membrane preparation
T1 sequence (P02919 whole entry): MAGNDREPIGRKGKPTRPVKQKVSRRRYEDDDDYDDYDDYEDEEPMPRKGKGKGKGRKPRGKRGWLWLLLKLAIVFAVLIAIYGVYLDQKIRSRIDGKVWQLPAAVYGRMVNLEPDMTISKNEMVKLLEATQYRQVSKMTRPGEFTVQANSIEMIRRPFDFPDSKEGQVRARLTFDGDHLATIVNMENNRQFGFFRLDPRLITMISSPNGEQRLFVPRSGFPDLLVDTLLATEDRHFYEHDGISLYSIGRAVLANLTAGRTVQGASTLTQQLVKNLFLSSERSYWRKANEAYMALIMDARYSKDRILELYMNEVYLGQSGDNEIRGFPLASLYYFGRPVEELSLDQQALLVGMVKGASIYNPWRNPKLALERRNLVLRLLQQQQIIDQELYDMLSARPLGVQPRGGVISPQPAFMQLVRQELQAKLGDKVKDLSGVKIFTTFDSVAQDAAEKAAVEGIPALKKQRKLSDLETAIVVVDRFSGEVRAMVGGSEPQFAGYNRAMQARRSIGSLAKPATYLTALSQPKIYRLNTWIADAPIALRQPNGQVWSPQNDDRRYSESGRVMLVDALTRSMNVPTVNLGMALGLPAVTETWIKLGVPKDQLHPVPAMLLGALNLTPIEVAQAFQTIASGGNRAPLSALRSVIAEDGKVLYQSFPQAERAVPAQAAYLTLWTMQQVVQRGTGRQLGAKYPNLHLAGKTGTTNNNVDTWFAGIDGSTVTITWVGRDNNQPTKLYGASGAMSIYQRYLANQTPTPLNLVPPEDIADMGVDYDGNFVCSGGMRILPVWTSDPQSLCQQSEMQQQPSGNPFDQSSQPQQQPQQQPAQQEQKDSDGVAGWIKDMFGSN

Staphylococcus aureus = assay: MIC, Staphylococcus aureus (MSSA, MRSA); type: cell-based
Excerpt: (§1) Bacterial isolates were subjected to broth microdilution susceptibility testing, performed according to Clinical and Laboratory Standards Institute (CLSI) methods ([46]), using panels prepared in-house. Meropenem was purchased from Sandoz, and all other antibiotics were from Sigma-Aldrich. Xeruborbactam was synthesized at Qpex Biopharma, San Diego, CA. Avibactam was purchased from eNovation Chemicals LLC, Bridgewater, NJ, USA; zidebactam was from MedKoo Biosciences, Inc., Morrisville, NC, and nacubactam was from Advanced ChemBlocks, Hayward, CA. Durlobactam was synthesized at Acme Bioscience, Palo Alto, CA, USA.

Acinetobacter baumannii = assay: Broth microdilution MIC (CLSI), Acinetobacter baumannii; type: cell-based
Method in brief: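 Test organisms were KPC-producing clinical isolates (some enriched for porin mutations), matched isolates that lost KPC plasmids, and engineered porin/efflux mutant strains. Susceptibility was measured by broth microdilution following CLSI methods, using panels prepared in-house.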

[1] = test system: Klebsiella pneumoniae strain KPM1026a; assay: Time-kill study; type: cell-based
PBP3 = target: T2, PBP3 (Escherichia coli, UniProt P0AD68); assay: Gel-based Bocillin FL competition PBP binding assay
T2 construct: endogenous in cells; host or cells: Escherichia coli ECM5497 (MG1655), total membrane preparation
T2 sequence (P0AD68 whole entry): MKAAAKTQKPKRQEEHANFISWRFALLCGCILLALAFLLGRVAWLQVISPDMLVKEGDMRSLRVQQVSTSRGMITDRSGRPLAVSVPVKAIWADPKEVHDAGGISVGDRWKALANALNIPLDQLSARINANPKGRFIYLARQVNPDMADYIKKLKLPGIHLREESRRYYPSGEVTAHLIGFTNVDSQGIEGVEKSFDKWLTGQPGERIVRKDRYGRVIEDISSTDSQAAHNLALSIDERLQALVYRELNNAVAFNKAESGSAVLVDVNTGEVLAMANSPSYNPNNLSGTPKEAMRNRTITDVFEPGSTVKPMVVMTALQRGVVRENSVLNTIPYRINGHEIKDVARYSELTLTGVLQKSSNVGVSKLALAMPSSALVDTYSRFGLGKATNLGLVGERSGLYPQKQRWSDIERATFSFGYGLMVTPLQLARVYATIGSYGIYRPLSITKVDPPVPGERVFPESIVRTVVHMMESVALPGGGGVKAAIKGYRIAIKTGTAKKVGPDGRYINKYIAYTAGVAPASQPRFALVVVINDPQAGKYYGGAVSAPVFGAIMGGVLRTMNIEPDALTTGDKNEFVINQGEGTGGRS
Method: Ten milliliters of overnight bacterial culture was inoculated in 1 L of LB medium and grown to an OD600 of 0.7 to 0.9. The cell pellet was washed once with 50 mL of solution containing 100 mM Na-phosphate at pH 7.0 and 100 mM NaCl and resuspended in 10 mL of the same buffer with one tablet of EDTA-free mini-protease inhibitor and 10 mg of lysozyme. Cell suspensions were incubated for 45 min at 37°C, and then 200 μL of DNase I was added along with MgSO4 (to a final concentration of 10 mM), followed by three cycles of freeze-thawing (10 min and 20 min, respectively). Four cycles of sonication at maximum power were performed next, each cycle lasting for 30 s with 1 min on ice between cycles. The cell suspension was centrifuged at 12,000 × g for 10 min at 4°C. The supernatant was collected and centrifuged at 100,000 × g for 45 min at 4°C. The pellet was washed three times with 10 mL of 100 mM Na-phosphate, pH 7.0, by resuspension and subsequent centrifugation at 100,000 × g for 10 min at 4°C. The pellet was finally resuspended in 1.5 mL of 100 mM Na-phosphate, pH 7.0, and passed several times through a Dounce homogenizer (tight pestle). […]
Five microliters of total bacterial membrane preparation was mixed with 5 μL of a test compound at a desired concentration in 100 mM Na-phosphate buffer, pH 7.0. […] IC50 values were calculated with Prism software (GraphPad).

Klebsiella oxytoca = assay: Broth microdilution MIC (CLSI), Klebsiella oxytoca; type: cell-based
Excerpt: as §1

Other Enterobacterales = assay: Broth microdilution MIC (CLSI), other Enterobacterales; type: cell-based; conditions: 18 isolates
Excerpt: as §1

[2] = Staphylococcus aureus, ATCC 29213 / MSSA, ATCC 29213, MSSA, read-out: MIC
[3] = Staphylococcus aureus, MRSA, sa001, MRSA, read-out: MIC
[4] = Staphylococcus aureus, MRSA, sa010, MRSA, read-out: MIC
[5] = Staphylococcus aureus, MRSA, sa013, MRSA, read-out: MIC
[6] = Staphylococcus aureus, MRSA, sa014, MRSA, read-out: MIC
[7] = Staphylococcus aureus, MRSA, sa148, MRSA, read-out: MIC
[8] = Staphylococcus aureus, MRSA, sa150, MRSA, read-out: MIC
[9] = Staphylococcus aureus, MRSA, sa151, MRSA, read-out: MIC
[10] = Staphylococcus aureus, MRSA, sa152, MRSA, read-out: MIC
[11] = Staphylococcus aureus, MRSA, sa153, MRSA, read-out: MIC
[12] = Staphylococcus aureus, MRSA, sa278, MRSA, read-out: MIC
[13] = Staphylococcus aureus, MRSA, sa279, MRSA, read-out: MIC
[14] = Staphylococcus aureus, MRSA, sa280, MRSA, read-out: MIC
[15] = Staphylococcus aureus, MRSA, sa281, MRSA, read-out: MIC
[16] = Staphylococcus aureus, MSSA, sa007, MSSA, read-out: MIC
[17] = Staphylococcus aureus, MSSA, sa015, MSSA, read-out: MIC
[18] = Acinetobacter baumannii, strain ACM1013, ΔadeIJK
[19] = Acinetobacter baumannii, strain ACM1014, ΔadeABC
[20] = Acinetobacter baumannii, strain ACM1015, ΔadeIJK ΔadeABC
[21] = Acinetobacter baumannii, strain ACM1027, adeN (AdeIJK overexpression)
[22] = Acinetobacter baumannii, strain ACM1030, adeS (AdeABC overexpression)
[23] = Staphylococcus aureus, MSSA, n = 12
[24] = Carbapenem-resistant Acinetobacter baumannii, 505 isolates
[25] = Klebsiella oxytoca, 23 isolates

C[C@@H](O)[C@H]1C(=O)N2C(C(=O)O)=C(S[C@@H]3CN[C@H](C(=O)N(C)C)C3)[C@H](C)[C@H]12 [Meropenem]
IC50 (PBP1a): 5.2 µM | IC50 (PBP1b): 3.4 µM | MIC (Staphylococcus aureus; [2]): 0.06 µg/mL (≈ 0.156 µM) | MIC (Staphylococcus aureus; [3]): 16 µg/mL (≈ 41.7 µM) | MIC (Staphylococcus aureus; [4]): 32 µg/mL (≈ 83.4 µM) | MIC (Staphylococcus aureus; [5]): 16 µg/mL (≈ 41.7 µM) | MIC (Staphylococcus aureus; [6]): 8 µg/mL (≈ 20.9 µM) | MIC (Staphylococcus aureus; [7]): 32 µg/mL (≈ 83.4 µM) | MIC (Staphylococcus aureus; [8]): 32 µg/mL (≈ 83.4 µM) | MIC (Staphylococcus aureus; [9]): 32 µg/mL (≈ 83.4 µM) | MIC (Staphylococcus aureus; [10]): 4 µg/mL (≈ 10.4 µM) | MIC (Staphylococcus aureus; [11]): 32 µg/mL (≈ 83.4 µM) | MIC (Staphylococcus aureus; [12]): 32 µg/mL (≈ 83.4 µM) | MIC (Staphylococcus aureus; [13]): 4 µg/mL (≈ 10.4 µM) | MIC (Staphylococcus aureus; [14]): 4 µg/mL (≈ 10.4 µM) | MIC (Staphylococcus aureus; [15]): 32 µg/mL (≈ 83.4 µM) | MIC (Staphylococcus aureus; Staphylococcus aureus, MSSA): 0.125 µg/mL (≈ 0.326 µM) | MIC (Staphylococcus aureus; [16]): 0.25 µg/mL (≈ 0.652 µM) | MIC (Staphylococcus aureus; [17]): 0.25 µg/mL (≈ 0.652 µM) | MIC (Staphylococcus aureus; sa002, MSSA): 0.125 µg/mL (≈ 0.326 µM) | MIC (Staphylococcus aureus; sa003, MSSA): 0.125 µg/mL (≈ 0.326 µM) | MIC (Staphylococcus aureus; sa004, MSSA): 0.125 µg/mL (≈ 0.326 µM) | MIC (Staphylococcus aureus; sa005, MSSA): 0.125 µg/mL (≈ 0.326 µM) | MIC (Staphylococcus aureus; sa006, MSSA): 0.125 µg/mL (≈ 0.326 µM) | MIC (Staphylococcus aureus; sa008, MSSA): 0.125 µg/mL (≈ 0.326 µM) | MIC (Staphylococcus aureus; sa009, MSSA): 0.125 µg/mL (≈ 0.326 µM) | MIC (Staphylococcus aureus; sa012, MSSA): 0.125 µg/mL (≈ 0.326 µM) | MIC (Acinetobacter baumannii; Acinetobacter baumannii, ATCC17978): 0.25 µg/mL and 0.66 µM | MIC (Acinetobacter baumannii; [18]): 0.125 µg/mL | MIC (Acinetobacter baumannii; [19]): 0.125 µg/mL | MIC (Acinetobacter baumannii; [20]): 0.06 µg/mL | MIC (Acinetobacter baumannii; [21]): 1 µg/mL | MIC (Acinetobacter baumannii; [22]): 0.5 µg/mL

O=C(O)c1c(F)ccc2c1OB(O)[C@@H]1C[C@H]21 [Xeruborbactam]
kinetics of killing [1]: time-dependent, concentration-independent bacterial killing | IC50 (PBP3): 73 ± 10 µM | MIC range (Staphylococcus aureus; MSSA, n = 12): 4 to 8 µg/mL | MIC (Staphylococcus aureus; [2]): 4 µg/mL (≈ 18 µM) | MIC (Staphylococcus aureus; Staphylococcus aureus, MRSA, all the MRSA strains, n = 13, read-out: MIC): > 32 µg/mL | MIC (Staphylococcus aureus; [3]): > 32 µg/mL | MIC (Staphylococcus aureus; [4]): > 32 µg/mL | MIC (Staphylococcus aureus; [5]): > 32 µg/mL | MIC (Staphylococcus aureus; [6]): > 32 µg/mL | MIC (Staphylococcus aureus; [7]): > 32 µg/mL | MIC (Staphylococcus aureus; [8]): > 32 µg/mL | MIC (Staphylococcus aureus; [9]): > 32 µg/mL | MIC (Staphylococcus aureus; [10]): > 32 µg/mL | MIC (Staphylococcus aureus; [11]): > 32 µg/mL | MIC (Staphylococcus aureus; [12]): > 32 µg/mL | MIC (Staphylococcus aureus; [13]): > 32 µg/mL | MIC (Staphylococcus aureus; [14]): > 32 µg/mL | MIC (Staphylococcus aureus; [15]): > 32 µg/mL | MIC (Staphylococcus aureus; Staphylococcus aureus, MSSA, sa002, MSSA, read-out: MIC): 8 µg/mL (≈ 36 µM) | MIC (Staphylococcus aureus; Staphylococcus aureus, MSSA, sa003, MSSA, read-out: MIC): 8 µg/mL (≈ 36 µM) | MIC (Staphylococcus aureus; Staphylococcus aureus, MSSA, sa004, MSSA, read-out: MIC): 8 µg/mL (≈ 36 µM) | MIC (Staphylococcus aureus; Staphylococcus aureus, MSSA, sa005, MSSA, read-out: MIC): 8 µg/mL (≈ 36 µM) | MIC (Staphylococcus aureus; Staphylococcus aureus, MSSA, sa006, MSSA, read-out: MIC): 8 µg/mL (≈ 36 µM) | MIC (Staphylococcus aureus; [16]): 8 µg/mL (≈ 36 µM) | MIC (Staphylococcus aureus; Staphylococcus aureus, MSSA, sa008, MSSA, read-out: MIC): 8 µg/mL (≈ 36 µM) | MIC (Staphylococcus aureus; Staphylococcus aureus, MSSA, sa009, MSSA, read-out: MIC): 8 µg/mL (≈ 36 µM) | MIC (Staphylococcus aureus; Staphylococcus aureus, MSSA, sa011, MSSA, read-out: MIC): 8 µg/mL (≈ 36 µM) | MIC (Staphylococcus aureus; Staphylococcus aureus, MSSA, sa012, MSSA, read-out: MIC): 8 µg/mL (≈ 36 µM) | MIC (Staphylococcus aureus; [17]): 8 µg/mL (≈ 36 µM) | MIC50 (Staphylococcus aureus; [23]): 8 µg/mL (≈ 36 µM) | MIC90 (Staphylococcus aureus; [23]): 8 µg/mL (≈ 36 µM) | MIC (Acinetobacter baumannii; Acinetobacter baumannii ACM1320 (ATCC 17978)): 16 µg/mL | MIC (Acinetobacter baumannii; Acinetobacter baumannii ACM1320 (ATCC 17978), read-out: MIC): 72 µM | MIC (Acinetobacter baumannii; Acinetobacter baumannii, 505 isolates of carbapenem-resistant A. baumannii, read-out: modal MIC): 32 µg/mL | MIC (Acinetobacter baumannii; Acinetobacter baumannii, AB1007 (no beta-lactamase), xeruborbactam 0 µg/ml, read-out: MIC): 16 µg/mL | MIC (Acinetobacter baumannii; Acinetobacter baumannii, ATCC17978, Acinetobacter baumannii ACM1320 (ATCC 17978), read-out: MIC): 72 µM and 16 µg/mL | MIC (Acinetobacter baumannii; Acinetobacter baumannii, ATCC17978, strain ATCC 17978 (Fig. 6), read-out: MIC): 16 µg/mL | MIC (Acinetobacter baumannii; Acinetobacter baumannii, pumpless strain of A. baumannii, read-out: MIC): 18 µM and 4 µg/mL | MIC (Acinetobacter baumannii; Acinetobacter baumannii, strain AB1007, wild type, read-out: MIC): 16 µg/mL | MIC (Acinetobacter baumannii; [18]): 4 µg/mL | MIC (Acinetobacter baumannii; [19]): 16 µg/mL | MIC (Acinetobacter baumannii; [20]): 4 µg/mL | MIC (Acinetobacter baumannii; [21]): 32 µg/mL | MIC (Acinetobacter baumannii; [22]): 16 µg/mL | MIC (Acinetobacter baumannii; Acinetobacter baumannii, strain AB1007, read-out: MIC): 16 µg/mL | MIC50 (Acinetobacter baumannii; [24]): 16 µg/mL | MIC90 (Acinetobacter baumannii; [24]): 64 µg/mL | fold MIC decrease (Acinetobacter baumannii; adeIJK inactivation): 4 fold | fold MIC increase (Acinetobacter baumannii; adeIJK overexpression): 2 fold | MIC (Klebsiella oxytoca; Klebsiella oxytoca isolates, read-out: highest MIC observed): 32 µg/mL (≈ 144 µM) | MIC50 (Klebsiella oxytoca; [25]): 8 µg/mL (≈ 36 µM) | MIC90 (Klebsiella oxytoca; [25]): 16 µg/mL (≈ 72.1 µM) | MIC range (Klebsiella oxytoca; [25]): 8 to 32 µg/mL | MIC50 (Other Enterobacterales): 16 µg/mL (≈ 72.1 µM) | MIC90 (Other Enterobacterales): 32 µg/mL (≈ 144 µM) | MIC range (Other Enterobacterales): 8 to 64 µg/mL
